Source: the CheMixHub ionic liquid set

Assay: xn = mol fraction of the nth substance listed

CCCC[N+](CCCC)(CCCC)CCCC.O=[N+]([O-])[O-] + CCCCCCCCCCCC[N+](C)(C)C.[Br-] + O
viscosity [mPa·s], 100 kPa
Settings	x2 = 5.421e-05, x1 = 0.0001802	x2 = 0.0001084, x1 = 0.0001801	x2 = 0.0001626, x1 = 0.0001801	x2 = 0.0002168, x1 = 0.0001801	x2 = 0.000271, x1 = 0.0001801	x2 = 0.0003252, x1 = 0.0001801	x2 = 0.0003794, x1 = 0.0001801	x2 = 0.0004335, x1 = 0.0001801	x2 = 0.0004877, x1 = 0.0001801	x2 = 0.0005418, x1 = 0.0001801
293.15 K	1.042	1.043	1.045	1.047	1.048	1.048	1.049	1.049	1.049	1.049
298.15 K	0.924	0.926	0.927	0.928	0.928	0.929	0.929	0.929	0.93	0.93
303.15 K	0.821	0.822	0.822	0.824	0.825	0.825	0.825	0.825	0.826	0.826
308.15 K	0.731	0.732	0.735	0.735	0.735	0.736	0.736	0.736	0.737	0.737
313.15 K	0.664	0.664	0.665	0.665	0.665	0.666	0.666	0.666	0.666	0.667
318.15 K	0.617	0.617	0.617	0.618	0.618	0.618	0.618	0.618	0.619	0.619

CCCCCC[N+]1(C)CCCC1.O=S(=O)([N-]S(=O)(=O)C(F)(F)F)C(F)(F)F + CCC[N+]1(C)CCCC1.O=S(=O)([N-]S(=O)(=O)C(F)(F)F)C(F)(F)F
101 kPa
Settings	electrical conductivity, 313.15 K [S/m]	electrical conductivity, 353.15 K [S/m]	viscosity, 313.15 K [mPa·s]	viscosity, 353.15 K [mPa·s]
x1 = 0.25	0.581	–	38.6	–
x1 = 0.5	–	1.23	–	13.2
